Source: US20210246439A1, “ENGINEERED BI-STABLE TOGGLE SWITCH AND USES THEREOF” (Massachusetts Institute of Technology, priority 2020, published 2021)
Blank lines part the entries; values can stand above or below the molecule they belong to.

How the values were obtained:
[1] = test system: engineered bi-stable toggle switch (CasE-PEST, Csy4-PEST, DDd-CasE, DDe-DDe-Csy4) in HEK293 cells; test: Toggle switch with DDd-CasE and DDe-DDe-Csy4 in transfected HEK293 cells, small-molecule control, flow cytometry of mKO2/eYFP; assay type: cell-based, human
Method: Output fluorescent protein genes may also contain PERSIST activation domains to decrease expression in the OFF state. […] Further, HEK293 cells were transfected with CasE-PEST, Csy4-PEST, DDd-CasE and DDe-DDe-Csy4 transiently and cultured in the absence of small molecule for 24 hours.

[2] = test system: CasE target hairpin containing a theophylline responsive aptamer; test: Proof of concept: CasE target hairpin with theophylline responsive aptamer 5' of eYFP, co-delivered with CasE; assay type: cell-based, human; conditions: HEK293 cells, versus absence of theophylline
Text: Alternatively, the engineered bi-stable toggle switch described in Example 1 can be designed to be able to respond to different small molecules to switch the system between different states. In this system, each of the endoRNAse target sites can include a small molecule-response aptamers. Binding of the small molecule to the aptamer stabilizes a secondary structure in the aptamer RNA that blocks the endoRNAse from cleaving its recognition hairpin. As illustrated by FIG. 4A, the CRISPR-endoRNAse recognition hairpin contains an aptamer sequence capable of binding to a small molecule. In the absence of the small molecule, the endoRNAse is able to cleave the recognition hairpin; however, the addition of the small molecule to the system induces a conformational change of the endoRNAse target hairpin, and such conformational change renders the endoRNAse incapable of binding and cleaving its target hairpin. […] In this experiment, a CasE target hairpin containing a theophylline responsive aptamer was placed 5′ of an eYFP coding sequence in an eYFP-expressing construct. This eYFP-expressing construct was co-delivered to HEK293 cells with another construct expressing CasE.

[3] = test system: engineered bi-stable motif; test: Screening of DDd-CasE fusion proteins on the bi-stable motif (polytransfection, eYFP/TagBFP); assay type: cell-based; conditions: hEF1α promoter, among CasE-DDd fusions screened
Method: Further, fusion proteins between CasE and one or more DDd domains were screened similarly as described above. In this experiment, only hEF1α promoter was tested. Each of the construct and the engineered bi-stable toggle switch described in Example 1 were delivered to the cells by polytransfection. The output molecules were eYFP and TagBFP. The system was designed such that Csy4 represses eYFP and CasE represses TagBFP. A cell in the CasE-high state expressed eYFP and a cell in the Csy4-high state expresses TagBFP. The ratio between CasE to Csy4 was set at 1.6 times as much Csy4 as CasE, biasing the system towards a Csy4-high state in the absence of additional proteins.

[4] = test system: engineered bi-stable motif; test: Screening of promoter and degradation domain combinations with Csy4 on the bi-stable motif (polytransfection, eYFP/TagBFP); assay type: cell-based
Method: Csy4 was first selected to be fused with either one copy or two copies of DDd domain or DDe domain respectively: DDe-Csy4, DDe-DDe-Csy4, DDd-Csy4, and DDd-DDd-Csy4. Various promoters (e.g., phEF1α, pUbc, and pPh1f) were used to drive the expression of the Csy4 or Csy4-degradation domain fusion proteins. pPh1f promoters were tested in the presence of Gal4-NLS-VP64. As a result, the following constructs were generated: phEF1α-Csy4, pUbc-DDd-Csy4, pUbc-DDd-DDd-Csy4, pPh1f-DDd-DDd-Csy4, pPh1f-DDd-Csy4-PEST, pPh1f-DDe-Csy4, pUbc-DDe-Csy4, pUbc-DDe-Csy4-PEST, pPh1f-DDe-DDe-Csy4, pUbc-DDe-DDe-Csy4, and pUbc-DDe-DDe-Csy4-PEST. Each of the constructs and the engineered bi-stable toggle switch described in Example 1 were delivered to the cells by polytransfection (Gam et al, A ‘poly-transfection’ method for rapid, one-pot characterization and optimization of genetic systems, Nucleic Acids Research, Volume 47, Issue 18, 10 Oct. 2019, Page e106). The output molecules were eYFP and TagBFP. The system was designed such that Csy4 represses eYFP and CasE represses TagBFP. A cell in the CasE-high state expressed eYFP and a cell in the Csy4-high state expresses TagBFP. The ratio between CasE to Csy4 was set at 6.7 times as much CasE as Csy4, biasing the system towards a CasE-high state in the absence of additional proteins. […]

Molecule: COc1cc(Cc2cnc(N)nc2N)cc(OC)c1OC [TMP, trimethoprim]
- reporter expression after small molecule addition ([1]; 10 μM added at 24 hrs and maintained for 48 hrs, roughly equal mKO2 and eYFP before addition): higher frequencies of eYFP expression than mKO2 expression

- eYFP expression in the presence of theophylline (repression by CasE lifted) [2]: two-folds increase
Molecule: Cn1c(=O)c2[nH]cnc2n(C)c1=O [theophylline]

Molecule: 4-hydroxytamoxifen [4-OHT]
- state the bi-stable toggle switch stabilizes on ([1]; small molecule in the system for 24 hours): Csy4-high/CasE-low state (mKO2-high/eYFP-low)

B1: DDd-CasE: fusion protein of DDd domain and CasE, nucleotide sequence SEQ ID NO: 6 (protein)
chain: MYLSKIIIARAWSRDLYQLHQELWHLFPNRPDAARDFLFHVEKRNTPEGCHVLLQSAQMPVSTAVATVIKTKQVEFQLQVGVPLYFRLRANPIKTILDNQKRLDSKGNIKRCRVPLIKEAEQIAWLQRKLGNAARVEDVHPISERPQYFSGEGKNGKIQTVCFEGVLTINDAPALIDLLQQGIGPAKSMGCGLLSLAPLMISLIAALAVDYVIGMENAMPWNLPADLAWFKRNTLNKPVIMGRHTWESIGRPLPGRKNIILSSQPSTDDRVTWVKSVDEAIAACGDVPEIMVIGGGRVIEQFLPKAQKLYLTHIDAEVEGDTHFPDYEPDDWESVFSEFHDADAQNSHSYCFEILERR
- being degraded in the absence of TMP and cleaving RNA in the presence of TMP [3]: better at (i) being degraded in the absence of TMP; and (ii) cleaving RNA efficiently in the presence of TMP

B2: DDe-DDe-Csy4: fusion protein of two DDe domains and Csy4, nucleotide sequence SEQ ID NO: 5 (protein)
chain: MSLALSLTADQMVSALLDAEPPILYSEYDPTRPFSEASMMGLLTNLADRELVHMINWAKRVPGFVDLALHDQVHLLECAWMEILMIGLVWRSMEHPGKLLFAPNLLLDRNQGKCVEGGVEIFDMLLATSSRFRMMNLQGEEFVCLKSIILLNSGVYTFLSSTLKSLEEKDHIHRVLDKITDTLIHLMAKAGLTLQQQHQRLAQLLLILSHIRHMSSKRMEHLYSMKCKNVVPLSDLLLEMLDAHRLMSLALSLTADQMVSALLDAEPPILYSEYDPTRPFSEASMMGLLTNLADRELVHMINWAKRVPGFVDLALHDQVHLLECAWMEILMIGLVWRSMEHPGKLLFAPNLLLDRNQGKCVEGGVEIFDMLLATSSRFRMMNLQGEEFVCLKSIILLNSGVYTFLSSTLKSLEEKDHIHRVLDKITDTLIHLMAKAGLTLQQQHQRLAQLLLILSHIRHMSSKRMEHLYSMKCKNVVPLSDLLLEMLDAHRLMDHYLDIRLRPDPEFPPAQLMSVLFGKLHQALVAQGGDRIGVSFPDLDESRSRLGERLRIHASADDLRALLARPWLEGLRDHLQFGEPAVVPHPTPYRQVSRVQAKSNPERLRRRLMRRHDLSEEEARKRIPDTVARALDLPFVTLRSQSTGQHFRLFIRHGPLQVTAEEGGFTCYGLSKGGFVPWF
- capability of (i) being degraded in the absence of 4-OHT and (ii) cleaving RNA efficiently in the presence of 4-OHT ([4]; among Csy4 fusion constructs screened): best capability
- fraction of cells in the TagBFP high state with versus without 4-OHT ([4]; regardless of promoter, especially in higher ratio bins): higher fraction of cells in the TagBFP high state when 4-OHT is present than without
